Measured values published in patent US5695970A, “Glucan lyase producing 1,5-anhydrofructose” (priority 1992, dated 1997).

How the values were obtained:
Format in all cases: biochemical, Gracilariopsis lemaneiformis
α-1,4-glucan lyase [1] = test: Inhibition studies of α-1,4-glucan lyase activity; details: for inhibition of enzymic activity: 0.1M
Method: (§1) The reaction mixture for the assay of α-1,4-glucan lyase was composed of 240 μl 62.5 mM Mops-NaOH containing 6 mg soluble starch (pH 6.2), the enzyme preparation and distilled water to a final volume of 300 μl. The reaction was carried out at 30° C. for 10-30 min. Liberated 1,5-anhydrofructose was determined by monitoring the absorbance at 546 nm after the addition of 3,5-dinitrosalicylic acid reagent. Soluble starch in the reaction mixture may be replaced by other substrates and the final substrate concentration may be varied as indicated in the text. The reaction time and enzyme concentration used in enzyme activity assay have been chosen to ensure the linearity of the reaction rate. One unit of α-1,4-glucan lyase activity is defined as the amount of enzyme which liberates 1μmol of 1,5-anhydrofructose min^-1 under the conditions described above.

α-1,4-glucan lyase [2] = test: Substrate specificity of α-1,4-glucan lyase, long term incubation (24 h), continuation of Table IV; details: for release of 1,5-anhydrofructose and glucose checked by TLC on Silica gel 60: after 24 h of incubation; for Product released: 1.64 μg enzyme, 24 h; for activity of the lyase with the substrate (in words): long term incubation at 30° C.
Method: The incubation time was 24 h.
as §1

α-1,4-glucan lyase [3] = test: Substrate specificity of α-1,4-glucan lyase (release of 1,5-anhydrofructose, DNS method, 15 min); details: for Activity (% of Maltoheptaose): incubation 15 min
Method: When amylopectin was used as a substrate, the activity reached maximum 8 mg ml^-1 and then decreased slightly at 20 mg ml^-1. The same results were obtained with soluble starch and maltoheptaose. When maltotriose and maltose were used as substrates, the activity reached maximum at 2 mg ml^-1 and 6 mg ml^-1, respectively. Substrate inhibition became evident at higher concentrations, especially in the case of maltotriose. […] Generally, the inhibition degree decreased with the increase in DP number (Degree of Polymerization). When the activity measured at 10 mg ml^-1 was compared at 2 mg ml^-1 and 4 mg ml^-1, substrate inhibition could be clearly seen among the maltosaccharides of DP 3-5. In maltohexaose, the substrate inhibition was very low and was none in maltoheptaose. Among the maltosaccharides, maltotetraose and maltopentaose were the poorest substrates.
With PNPG1 (p-nitrophenyl-α-D-glucoside), the artificial substrate of α-glucosidase, reaction rate was the lowest.
Substrate Specificity of α-1,4-Glucan lyase.
The concentration of various substrates in the reaction mixture
was 10 mg ml^-1 except PNPG1, PNPG2, PNPG7, which was 2 mM.
The incubation time was 15 min. The degrading rate of maltoheptaose
was 84 μmol min^-1. mg^-1 protein.
as §1

Compound: CO[C@H]1O[C@H](CO)[C@@H](O)[C@H](O)[C@H]1O [Methyl α-D-glucoside, methyl α-D-glucoside]
- inhibitory effect on the enzyme activity (α-1,4-glucan lyase [1]; 12 mM, maltose as substrate): no inhibitory effect
- inhibitory effect on the enzyme activity (α-1,4-glucan lyase [1]; 12 mM, soluble starch as substrate): no inhibitory effect
- release of 1,5-anhydrofructose and glucose checked by TLC on Silica gel 60 (α-1,4-glucan lyase [2]): No 1,5-anhydrofructose and glucose were released
- Product released (α-1,4-glucan lyase [2]; substrate 10 mM): 0 nmol

Compound: OC[C@H]1O[C@@H]2O[C@H]3[C@H](O)[C@@H](O)[C@@H](O[C@H]4[C@H](O)[C@@H](O)[C@@H](O[C@H]5[C@H](O)[C@@H](O)[C@@H](O[C@H]6[C@H](O)[C@@H](O)[C@@H](O[C@H]7[C@H](O)[C@@H](O)[C@@H](O[C@H]1[C@H](O)[C@H]2O)O[C@@H]7CO)O[C@@H]6CO)O[C@@H]5CO)O[C@@H]4CO)O[C@@H]3CO [Cyclohexaamylose, cyclohexaamylose]
- inhibitory effect on the enzyme activity (α-1,4-glucan lyase [1]; 4 mM, maltose as substrate): no inhibitory effect
- inhibitory effect on the enzyme activity (α-1,4-glucan lyase [1]; 4 mM, soluble starch as substrate): no inhibitory effect
- release of 1,5-anhydrofructose and glucose checked by TLC on Silica gel 60 (α-1,4-glucan lyase [2]): No 1,5-anhydrofructose and glucose were released
- Product released (α-1,4-glucan lyase [2]; substrate 20 mM): 0 nmol

Compound: OC[C@H]1O[C@H](O[C@H]2[C@H](O)[C@@H](O)[C@@H](O[C@H]3[C@H](O)[C@@H](O)[C@@H](O[C@H]4[C@H](O)[C@@H](O)[C@@H](O[C@H]5[C@H](O)[C@@H](O)[C@@H](O[C@H]6[C@H](O)[C@@H](O)C(O)O[C@@H]6CO)O[C@@H]5CO)O[C@@H]4CO)O[C@@H]3CO)O[C@@H]2CO)[C@H](O)[C@@H](O)[C@@H]1O (stereo partly drawn) [Maltohexaose, maltohexaose]
- substrate inhibition (α-1,4-glucan lyase [3]; higher substrate concentrations, 10 mg ml^-1 compared with 2 and 4 mg ml^-1): very low
- Activity (% of Maltoheptaose) (α-1,4-glucan lyase [3]; substrate 10 mg ml^-1): 74.6%

Compound: OC[C@@H](O)[C@@H](O)[C@H](O)[C@@H](O)CO [sorbitol]
- inhibition of enzymic activity (α-1,4-glucan lyase [1]; amylopectin as substrate): no inhibition
- inhibition of enzymic activity (α-1,4-glucan lyase [1]; maltose as substrate): no inhibition

Compound: OC[C@H]1O[C@H](OC[C@H]2OC(O)[C@H](O)[C@@H](O)[C@@H]2O)[C@H](O)[C@@H](O)[C@@H]1O (stereo partly drawn) [Isomaltose, isomaltose]
- release of 1,5-anhydrofructose and glucose checked by TLC on Silica gel 60 (α-1,4-glucan lyase [2]): No 1,5-anhydrofructose and glucose were released
- Product released (α-1,4-glucan lyase [2]; substrate 4 mg ml^-1): 0 nmol

Compound: Nc1ncnc2c1ncn2[C@@H]1O[C@H](COP(=O)(O)OP(=O)(O)O[C@H]2O[C@H](CO)[C@@H](O)[C@H](O)[C@H]2O)[C@@H](O)[C@H]1O [ADP-Glucose]
- Product released (α-1,4-glucan lyase [2]; substrate 5 mM): 0 nmol

Compound: O=P(O)(O)O[C@H]1O[C@H](CO)[C@@H](O)[C@H](O)[C@H]1O [Glucose 1-Phosphate]
- Product released (α-1,4-glucan lyase [2]; substrate 10 mM): 0 nmol

Compound: OC[C@H]1O[C@H](O[C@H]2[C@H](O)[C@@H](CO)OC(O)[C@@H]2O)[C@H](O)[C@@H](O)[C@@H]1O (stereo partly drawn) [Nigerose, nigerose]
- activity of the lyase with the substrate (in words) (α-1,4-glucan lyase [2]): able to degrade
- Product released (α-1,4-glucan lyase [2]; substrate 4 mg ml^-1): 13452.8 nmol

Compound: O=[N+]([O-])c1ccc(O[C@H]2O[C@H](CO)[C@@H](O)[C@H](O)[C@@H]2O)cc1 [PNPMan, p-introphenyl-α-D-mannoside]
- activity of the lyase with the substrate (in words) (α-1,4-glucan lyase [2]): no activity
- Product released (α-1,4-glucan lyase [2]; substrate 2 mM): 0 nmol

Compound: OC[C@H]1NC[C@H](O)[C@@H](O)[C@@H]1O [Deoxynojirimycin, deoxynojirimycin]
- inhibition of enzyme activity (α-1,4-glucan lyase [1]; inhibitor 0.165 mM, maltose as substrate): inhibit the activity completely
- inhibition of enzyme activity (α-1,4-glucan lyase [1]; inhibitor 2 mM, amylopectin as substrate): completely inhibited
- inhibition of enzyme activity (α-1,4-glucan lyase [1]; inhibitor 2 mM, maltose as substrate): completely inhibited
- inhibition of the algal enzyme (in words) (α-1,4-glucan lyase [1]; summary statement, no concentration): strongly inhibited

Compound: O=[N+]([O-])c1ccc(O[C@H]2O[C@H](CO)[C@@H](O[C@H]3O[C@H](CO)[C@@H](O[C@H]4O[C@H](CO)[C@@H](O[C@H]5O[C@H](CO)[C@@H](O[C@H]6O[C@H](CO)[C@@H](O[C@H]7O[C@H](CO)[C@@H](O[C@H]8O[C@H](CO)[C@@H](O)[C@H](O)[C@H]8O)[C@H](O)[C@H]7O)[C@H](O)[C@H]6O)[C@H](O)[C@H]5O)[C@H](O)[C@H]4O)[C@H](O)[C@H]3O)[C@H](O)[C@H]2O)cc1 [PNPG7, p-nitrophenyl-α-D-maltoheptaoside]
- Activity (% of Maltoheptaose) (α-1,4-glucan lyase [3]; substrate 2 mM): 100.0%

Compound: amylose
- Activity (% of Maltoheptaose) (α-1,4-glucan lyase [3]; substrate 10 mg ml^-1): 100.4%

Compound: OC[C@H]1O[C@@H](O[C@H]2[C@H](O)[C@@H](O)C(O)O[C@@H]2CO)[C@H](O)[C@@H](O)[C@H]1O (stereo partly drawn) [Lactose, lactose]
- inhibition of enzymic activity (α-1,4-glucan lyase [1]; amylopectin as substrate): no inhibition
- inhibition of enzymic activity (α-1,4-glucan lyase [1]; maltose as substrate): no inhibition
- release of 1,5-anhydrofructose and glucose checked by TLC on Silica gel 60 (α-1,4-glucan lyase [2]): No 1,5-anhydrofructose and glucose were released
- Product released (α-1,4-glucan lyase [2]; substrate 10 mg ml^-1): 0 nmol

Compound: floridean starch
- Activity (% of Maltoheptaose) (α-1,4-glucan lyase [3]; substrate 10 mg ml^-1): 61.9%

Compound: OC[C@H]1O[C@H](O[C@H]2O[C@H](CO)[C@@H](O)[C@H](O)[C@H]2O)[C@H](O)[C@@H](O)[C@@H]1O [Trehalose, trehalose]
- inhibition of enzymic activity (α-1,4-glucan lyase [1]; amylopectin as substrate): no inhibition
- inhibition of enzymic activity (α-1,4-glucan lyase [1]; maltose as substrate): no inhibition
- release of 1,5-anhydrofructose and glucose checked by TLC on Silica gel 60 (α-1,4-glucan lyase [2]): No 1,5-anhydrofructose and glucose were released
- Product released (α-1,4-glucan lyase [2]; substrate 10 mg ml^-1): 0 nmol

Compound: OC[C@H]1O[C@@](CO)(O[C@H]2O[C@H](CO)[C@@H](O)[C@H](O)[C@H]2O)[C@@H](O)[C@@H]1O [Sucrose, sucrose]
- inhibition of enzymic activity (α-1,4-glucan lyase [1]; amylopectin as substrate): no inhibition
- inhibition of enzymic activity (α-1,4-glucan lyase [1]; maltose as substrate): no inhibition
- release of 1,5-anhydrofructose and glucose checked by TLC on Silica gel 60 (α-1,4-glucan lyase [2]): No 1,5-anhydrofructose and glucose were released
- Product released (α-1,4-glucan lyase [2]; substrate 10 mg ml^-1): 0 nmol
